# Values quoted from earlier work in patent publication US6685965B1, “PROCESS FOR STABILIZING LEVOGYRE ASCORBIC ACID (LAA), A STABLE AQUEOUS LAA COMPOSITION, A PROCESS FOR PREPARING A STABLE TOPICAL SOLUTION, AN EMULSION, A VITAMIN PRODUCT, AND A METHOD FOR COSMETIC, PHARMACEUTICAL OR NUTRITIONAL TREATMENT” (Industria E Comercio de Cosmeticos Natura LTDA., priority 1997, dated 2004).
# Experiments:
# human fibroblasts = human fibroblasts in vitro, in the presence of LAA
# [1] = tested on: glucosaminoglycines, components of the extracellular matrix of the dermis; details: in the presence of LAA
compound,measurement,setting,value
"O=C1OC(C(O)CO)C(O)=C1O (stereo not shown) [LAA, levogyre ascorbic acid]",efficiency of mRNA in the translation of the polypeptidic chains of collagen,human fibroblasts,about 2 times
same,increase in the synthesis of mRNA (collagens of type I and type III),human fibroblasts,2 to 3 times
same,increase in deposition of glucosaminoglycines in the extracellular matrix,[1],50%
same,increase in synthesis of glucosaminoglycines,[1],30 to 90%
